“And” between values parts separate entries of the source, which are not always exact repeats. Equal values may be shown once.
Assay: Determination of nanoparticle (lipoplex) size by dynamic light scattering
Format: physicochemical
Conditions: ratio 3:24 (w:w); for Conformity (C)/ Non-conformity (NC) / Mean Diameter (nm): complexes with pDNA; for Mean Diameter (nm): dynamic light scattering at 25°C; for Mean Diameter (nm) / PDI: triplicate measurements; for PDI: polydispersity index of complexes with pDNA, 25°C
Experimental: • 1. Preparative HPLC Method: Unless otherwise indicated, the compounds described herein were purified by RP-MPLC ARMEN® Spot Flash Liquid Chromatography (ARMEN Instrument, Saint Ave, France) on a preparative column (SVF D26) packed with 25-40 µm C18 resin (Merck chimie SAS), by applying a linear gradient of 0-10% MeCN in NH4OAc (10 mM) solution (pH = 9) over 60 min at a 15 mL/min flow rate. The purification was monitored at 254 nm. Suitable fractions were pooled and lyophilised. • 2. Proton NMR Spectra: Unless otherwise indicated, all ^1H NMR spectra were run on a Bruker series 300 MHz instrument. Where so characterized, all observed protons are reported as parts-per-million (ppm) downfield from tetramethylsilane (TMS) or other internal reference in the appropriate solvent indicated. NMR spectra were recorded on a Brucker 300 spectrometer. For ^1H (300 MHz) spectra δ values were referenced to CDCI3-d1 (7.26 ppm), DMSO- d6 (2.50 ppm), D2O-d2 (4.79 ppm) or MeOD-d4 (3.31 ppm). The peak patterns are indicated as follows: s: singlet, sl: large singlet, d: doublet, t: triplet, q: quartet, m: multiplet. • 3. Mass Spectra (MS): Analyses were run on an Agilent Model 6130 quadrupole MS. Unless otherwise indicated, all mass spectral data for starting materials, intermediates and/or exemplary compounds are reported as mass/charge (m/z), having an (M+H)^+ molecular ion. The molecular ion reported was obtained by electrospray detection method (commonly referred to as an ESI MS). Compounds having an isotopic atom, such as bromine and the like, are generally reported according to the detected isotopic pattern, as appreciated by those skilled in the art. • 4. Particle size: Particle size was determined using a Malvern Nanosizer (Malvern, Worcestershire, UK) and Malvern ZETASIZER.RTM. (Malvern, Worcestershire, UK). • 5. Naming Convention The compounds disclosed and described herein have been named using the naming convention provided with Chem-Draw Ultra 11.0 software, available in Chem. Office. In some instances, compounds were named with the term "spermine" inserted where appropriate. For example, where the spermine is substituted with Boc, "N1,N5,N10-TriBoc-spermine" is added to the Chem-Draw nomenclature in the appropriate place. Chem-Draw utilizes the ISIS Draw software compound naming convention, as appreciated by those skilled in the art.
For pDNA:TLR7-TLR2 polyamine molecules complexes, a ratio pDNA:TLR7-TLR2 polyamine molecules of 3:24 (w:w) was prepared in serum-free culture medium or in 5% glucose. The TLR7-TLR2 conjugated compound of interest was prediluted in serum-free culture medium or in 5% glucose and incubated for 5 minutes at room temperature, prior to the addition of an endotoxin-free, salt-free preparation of pDNA. In these experiments, the pBsr2pCpGLacZh plasmid was used in the pDNA:TLR7-TLR2 polyamine molecule complexes. The pDNA:TLR7-TLR2 polyamine molecule mixtures were incubated at room temperature for 30 minutes to allow the formation of the complex. The control used in these experiments was the cationic lipid transfection agent LyoVec™ (InvivoGen) prepared in a similar manner.
In order to confirm that TLR7-TLR2 polyamine molecules complex DNA, lipoplex size was determined. The physical characterization of complex was achieved by dynamic light scattering using the analytical equipment for laser diffraction Zetasizer Nano-ZS (Malvern). pDNA:TLR7-TLR2 polyamine molecule complexes were prepared as described above. Subsequently, 50µl of pDNA: TLR7-TLR2 polyamine molecule complexes were placed into a disposable sizing cuvette and measurements were made under conditions defined according to manufacturer's instructions. The measurements were made at 25°C in triplicate and a size distribution report was obtained. […]

| Structure (SMILES) | Conformity (C)/ Non-conformity (NC) | Mean Diameter (nm) | PDI |
| --- | --- | --- | --- |
| CCCCCCCCCCCCCCCC(=O)OCC(CSC[C@H](N)C(=O)N[C@@H](CO)C(=O)N[C@@H](CCCCN)C(=O)N[C@@H](CCCCN)C(=O)N[C@@H](CCCCNC(=O)c1ccc(Cn2c(O)nc3c(N)nc(NCCCC)nc32)cc1)C(=O)N[C@@H](CCCCN)C(=O)O)OC(=O)CCCCCCCCCCCCCCC (stereo partly drawn) [CL530, (2S,5S,8S,11S,14S,17R)-17-amino-5-(4-(4-((6-amino-2-(butylamino)-8-hydroxy-9H-purin-9-yl)methyl)benzamido)butyl)-2,8,11-tris(4-aminobutyl)-14-(hydroxymethyl) -4,7,10,13,16,24-hexaoxo-21-(palmitoyloxy)-23-oxa-19-thia-3,6,9,12,15-pentaaza nonatriacontan-1-oic acid] | NC (larger sizes were considered to show aggregates or non-conformity) | 188,0 nm and 187,6 nm and 213,1 nm | 0,332 and 0,351 and 0,315 |
| CCCCCCCCCCCCCCCC(=O)N[C@@H](CSCC(COC(=O)CCCCCCCCCCCCCCC)OC(=O)CCCCCCCCCCCCCCC)C(=O)N[C@@H](CO)C(=O)N[C@@H](CCCCNC(=O)c1ccc(Cn2c(O)nc3c(N)nc(NCCCC)nc32)cc1)C(=O)N[C@@H](CCCCN)C(=O)N[C@@H](CCCCN)C(=O)N[C@@H](CCCCN)C(=O)O (stereo partly drawn) [CL537, (2S,5S,8S,11S,14S,17R)-11-(4-(4-((6-amino-2-(butylamino)-8-hydroxy-9H-purin-9-yl)methyl)benzamido)butyl)-2,5,8-tris(4-aminobutyl)-14-(hydroxymethyl)-4,7,10, 13,16,24-hexaoxo-17-palmitamido-21-(palmitoyloxy)-23-oxa-19-thia-3,6,9,12,15-pentaazanonatria contan-1-oic acid] | NC (larger sizes were considered to show aggregates or non-conformity) | 198,1 nm and 203,5 nm and 219,3 nm | 0,704 and 0,618 and 0,626 |
| CCCCCCCCCCCCCCCC(=O)N[C@@H](CSCC(COC(=O)CCCCCCCCCCCCCCC)OC(=O)CCCCCCCCCCCCCCC)C(=O)N[C@@H](CO)C(=O)N[C@@H](CCCCN)C(=O)N[C@@H](CCCCN)C(=O)N[C@@H](CCCCNC(=O)c1ccc(Cn2c(O)nc3c(N)nc(NCCCC)nc32)cc1)C(=O)N[C@@H](CCCCN)C(=O)O (stereo partly drawn) [CL535, (2S,5S,8S,11S,14S,17R)-5-(4-(4-((6-amino-2-(butylamino)-8-hydroxy-9H-purin-9-yl)methyl)benzamido)butyl)-2,8,11-tris(4-aminobutyl)-14-(hydroxymethyl)-4,7,10, 13,16,24-hexaoxo-17-palmitamido-21-(palmitoyloxy)-23-oxa-19-thia-3,6,9,12,15-pentaazanonatriacontan-1-oic acid] | NC (larger sizes were considered to show aggregates or non-conformity) | 229,5 nm and 232,3 nm and 226,8 nm | 0,351 and 0,336 and 0,396 |
| CCCCCCCCCCCCCCCC(=O)N[C@@H](CSCC(COC(=O)CCCCCCCCCCCCCCC)OC(=O)CCCCCCCCCCCCCCC)C(=O)N[C@@H](CO)C(=O)N[C@@H](CCCCN)C(=O)N[C@@H](CCCCNC(=O)c1ccc(Cn2c(O)nc3c(N)nc(NCCCC)nc32)cc1)C(=O)N[C@@H](CCCCN)C(=O)N[C@@H](CCCCN)C(=O)O (stereo partly drawn) [CL536, (2S,5S,8S,11S,14S,17R)-8-(4-(4-((6-amino-2-(butylamino)-8-hydroxy-9H-purin-9-yl)methyl)benzamido)butyl)-2,5,11-tris(4-aminobutyl)-14-(hydroxymethyl)-4,7,10, 13,16,24-hexaoxo-17-palmitamido-21-(palmitoyloxy)-23-oxa-19-thia-3,6,9,12,15-pentaazanonatriacontan-1-oic acid] | NC (larger sizes were considered to show aggregates or non-conformity) | 231,9 nm and 236,1 nm and 225,8 nm | 0,465 and 0,583 and 0,65 |
| CCCCCCCCCCCCCCCC(=O)OCC(CSC[C@H](N)C(=O)N[C@@H](CO)C(=O)N[C@@H](CCCCNC(=O)c1ccc(Cn2c(O)nc3c(N)nc(NCCCC)nc32)cc1)C(=O)N[C@@H](CCCCN)C(=O)N[C@@H](CCCCN)C(=O)N[C@@H](CCCCN)C(=O)O)OC(=O)CCCCCCCCCCCCCCC (stereo partly drawn) [CL533, (2S,5S,8S,11S,14S,17R)-17-amino-11-(4-(4-((6-amino-2-(butylamino)-8-hydroxy-9H-purin-9-yl)methyl)benzamido)butyl)-2,5,8-tris(4-aminobutyl)-14-(hydroxylmethyl)-4,7,10,13,16,24-hexaoxo-21-(palmitoyloxy)-23-oxa-19-thia-3,6,9,12,15-pentaazanonatria contan-1-oic acid] | C (ranged between 140 and 200 nm in diameter were considered to show conformity) | 140,4 nm and 149,8 nm and 141,5 nm | 0,195 and 0,198 and 0,185 |
| CCCCCCCCCCCCCCCC(=O)OCC(CSC[C@H](N)C(=O)N[C@@H](CO)C(=O)N[C@@H](CCCCN)C(=O)N[C@@H](CCCCNC(=O)c1ccc(Cn2c(O)nc3c(N)nc(NCCCC)nc32)cc1)C(=O)N[C@@H](CCCCN)C(=O)N[C@@H](CCCCN)C(=O)O)OC(=O)CCCCCCCCCCCCCCC (stereo partly drawn) [CL531, (2S,5S,8S,11S,14S,17R)-17-amino-8-(4-(4-((6-amino-2-(butylamino)-8-hydroxy-9H-purin-9-yl)methyl)benzamido)butyl)-2,5,11-tris(4-aminobutyl)-14-(hydroxymethyl) -4,7,10,13,16,24-hexaoxo-21-(palmitoyloxy)-23-oxa-19-thia-3,6,9,12,15-pentaaza nonatriacontan-1-oic acid] | C (ranged between 140 and 200 nm in diameter were considered to show conformity) | 145,0 nm and 143,8 nm and 140,1 nm | 0,144 and 0,153 and 0,138 |
